Measurements: patent US20240400606A1, “SMALL MOLECULE ACTIVATORS OF THE IMMUNE SYSTEM” (THE BOARD OF TRUSTEES OF THE UNIVERSITY OF ILLINOIS, priority 2021, published 2024)
“Also recorded” adds a separate entry of the source.

How the values were obtained:
[1] = target: human carbonic anhydrase II (hCAII) (Homo sapiens (Human), UniProt P00918); assay: Human carbonic anhydrase II assay; assay type: biochemical; conditions: concentrations up to 200 μM; listed as IB:10:D
Method: Human Carbonic Anhydrase II Assay. Stock solutions of compound of interest (in DMSO), acetazolamide (10 μM in DMSO), hCAII solution (65 μL of 33 μM stock to 1.935 mL hCAII assay buffer to make 1 μM hCAII solution), and 4-nitrophenylacetate (4-NPA; 60 μL of 100 mM DMSO stock to 3 mL hCAII assay buffer to make 2 mM 4-NPA solution). To the wells of a 384-well clear bottom plate were added 1 μL compound of interest or 10 μM acetazolamide. 20 μL of hCAII solution was added to all wells except no enzyme control well, in which case 20 μL hCAII assay buffer was added instead. Plates were incubated for 11 minutes at room temperature before addition of 4-NPA solution to all wells. Absorbance at 348 nm was read every 10 seconds of 11 minute total run time. Three technical replicates were assessed per plate. Controls: hCAII+4-NPA (DMSO added in place of compound of interest, DMSO control), 4-NPA background (no enzyme, DMSO added in place of compound of interest, 4-NPA control), hCAII+4-NPA+acetazolamide (acetazolamide added in place of compound of interest, known hCAII inhibitor).
Percent inhibition calculated as: 100−[100×[(AbSaverage, compound of interest−AbSaverage, 4-NPA)/(AbSaverage, DMSO−AbSaverage, 4-NPA)]].

[2] = Pharmacokinetic mouse studies; assay type: in vivo, C57BL/6 mice; conditions: for concentration in the serum: mice
Method: Pharmacokinetic Analysis. […] Whole blood was collected, centrifuged, and EDTA serum separated for quantification by […] methods (UIUC Metabolomics Center, Urbana, IL).
Pharmacokinetic mouse studies: Compound (3) was formulated in 50% DMSO, 50% Peg400 at 40 mg/mL (for 200 mg/kg injection), Compound was injected intraperitoneally into female C57BL/6 mice (3 per time point). Blood from the mice were harvested at each time point. Serum was separated and concentration in the serum was quantified by LC-MS/MS.

[3] = system: STS and SULT2B1b levels in T47D; assay: Western blot of STS and SULT2B1b after treatment, T47D; assay type: cell-based; conditions: 6.25 μM, 72 hours
Method: Western Blot Analysis. Cells were lysed using RIPA buffer containing phosphatase (BioVision) and protease inhibitor cocktail (Calbiochem). Protein concentrations were determined using the BCA assay (Pierce). Lysates containing 15 μg of protein were loaded onto 4-20% gradient gels (BioRad), and SDS-PAGE was run. Proteins were then transferred onto membrane (PVDF Millipore) for Western Blot analysis. Blots were blocked with BSA solution (2 g in 40 mL TBST) for one hour followed by primary antibody addition and incubation overnight (using manufacturer's recommended dilutions). Following overnight incubation, blots were washed with TBST, and incubated with HRP-linked secondary antibody for 1 hour in TBST. Blots were washed, then imaged with ChemiDoc after incubation with SuperSignal West Pico Solution following manufacturer's procedures.

[4] = system: whole cell CS levels in MDG; assay: Whole cell cholesterol sulfate quantification, MDG; assay type: cell-based, human; conditions: 6.25 μM, 72 hours
Method: General Whole Cell Cholesterol Sulfate Quantification. 60×15 mm tissue culture dishes were seeded with MCF-7 at 2×10^6 cells/dish or T47D at 1×10^6 cells per dish, 5 mL total media volume, and allowed to adhere overnight. Compounds of interest were dissolved in DMSO. Cells were treated with 25 μL 1.25 mM compound of interest stock (6.25 μM final compound concentration, 0.5% final DMSO concentration) or DMSO for 72 hours. To harvest, media was aspirated, and cells were washed once with PBS before detaching with trypsin. Trypsin was quenched with media. Cells were centrifuged at 300 xg for 3 minutes and supernatant was discarded. Cells were resuspended in media and counted using a Countess 3 automated cell counter (Thermo Fisher Scientific). 1.5×10^6 cells were collected, washed twice with 1 mL PBS, then pelleted and stored at −80° C. until lysis. […] 100 μL of supernatant was transferred to an empty Eppendorf tube and submitted for LC-MS/MS quantification (UIUC Metabolomics Center), along with 5 mM cholesterol sulfate sodium salt standard.
General LC-MS/MS Quantification Method. Both DHEAS and CS samples were analyzed by 6500 QTRAP (Sciex, Redwood City, CA) liquid chromatography-tandem mass spectrometry. […] Cholesterol-sulfate and DHEA-sulfate were detected by multiple reaction monitoring (MRM) at m/z 465→97.0 and 367.0→97.0 respectively. […]

[5] = female, mouse, 200 mg/kg, C57BL/6 mice, single IP dose, serum

| Compound | inhibition of hCAII [1] | CL ([2]; C57BL/6 mice, single IP dose, serum) [mL/min/kg] | AUC [2, 5] [ng·h/mL] | Cmax [2, 5] [ng/mL] | MRT [2, 5] [h] | half-life [2, 5] [h] | concentration in the serum ([2]; 200 mg/kg intraperitoneally) [µM] | concentration in the serum ([2]; stated as 150 mg/kg IP) [µM] | STS and SULT2B1b levels after treatment [3] | whole cell CS levels vs DMSO [4] |
| --- | --- | --- | --- | --- | --- | --- | --- | --- | --- | --- |
| C[C@]12CCC(=O)N(Cc3ccc(Cl)cc3)C1=CC[C@@H]1[C@@H]2C(=O)C[C@]2(C)C(=O)CC[C@@H]12 [Compound 1, (4aR,4bS,6aS,9aS,9bS)-1-(4-chlorobenzyl)-4a,6a-dimethyl-3,4,4a,6,6a,8,9,9a,9b,10-decahydro-1H-indeno[5,4-f]quinoline-2,5,7(4bH)-trione] | does not inhibit; also recorded: No inhibition | – | – | – | – | – | – | – | – | – |
| C[C@]12CCC(=O)N(Cc3ccc(Br)cc3)C1=CC[C@@H]1[C@@H]2C(=O)C[C@]2(C)C(=O)CC[C@@H]12 [Compound 3, (4aR,4bS,6aS,9aS,9bS)-1-(4-bromobenzyl)-4a,6a-dimethyl-3,4,4a,6,6a,8,9,9a,9b,10-decahydro-1H-indeno[5,4-f]quinoline-2,5,7(4bH)-trione] | – | 90.56 | 36800 | 19800 | 1.86 | 1.29 | ~50 | ~50 | unchanged | confirmed |
